Data set [1] deals with Plasmodium falciparum. Kind of data set: Antiplasmodial activity against chloroquine-sensitive Plasmodium falciparum 3D7 assessed as inhibition of parasite growth incubated for 3 days by HRP2-ELISA. Type of data set: functional, organism-based. Particulars: 3D7, 72 h. Background: An ELISA detects its analyte on a solid surface through an enzyme-linked reagent.
Data set [2] is described as follows: Cytotoxicity against human HepG2 cells assessed as cell growth inhibition incubated for 1 day by neutral red assay. Type of data set: toxicity, cell-based.
Data set [3] in a line: Inhibition of hemin (unknown origin) assessed as inhibition of heme polymerization by measuring reduction in beta-hematin formation at 1 mM measured after 48 hrs by microplate reader assay.
Data set [4] relates to Plasmodium falciparum. Kind of data set: Antiplasmodial activity against multidrug-resistant Plasmodium falciparum Dd2 assessed as inhibition of parasite growth incubated for 3 days by HRP2-ELISA. Type of data set: functional, organism-based. Particulars: Dd2, 72 h.
Data set [5] is described as follows: Selectivity index, ratio of IC50 for cytotoxicity against human HepG2 cells to IC50 for antiplasmodial activity against chloroquine-sensitive Plasmodium falciparum 3D7. Type of data set: toxicity, cell-based. To be noted: read-out: Ratio IC50.
A short description of data set [6]: Resistance index, ratio of IC50 for antiplasmodial activity against multidrug-resistant Plasmodium falciparum Dd2 to IC50 for antiplasmodial activity against chloroquine-sensitive Plasmodium falciparum 3D7. Type of data set: functional.
Data set [7] concerns Plasmodium falciparum. Kind of data set: Antiplasmodial activity against multidrug-resistant Plasmodium falciparum K1 assessed as inhibition of parasite growth incubated for 3 days by HRP2-ELISA. To be noted: K1, 72 h. Type of data set: functional, organism-based.
The test system of data set [8] is Plasmodium falciparum. Kind of data set: Potency index, ratio of chloroquine IC50 to test compound IC50 for antiplasmodial activity against multidrug-resistant Plasmodium falciparum Dd2 assessed as inhibition of parasite growth incubated for 3 days by HRP2-ELISA. Type of data set: functional. To be noted: time 3 day.
The subject of data set [9] is Plasmodium falciparum. The data set can be described thus: Potency index, ratio of chloroquine IC50 to test compound IC50 for antiplasmodial activity against chloroquine-sensitive Plasmodium falciparum 3D7 assessed as inhibition of parasite growth incubated for 3 days by HRP2-ELISA. Type of data set: functional. Particulars: time 3 day.
Data set [10] relates to Plasmodium falciparum. The data set can be described thus: Potency index, ratio of chloroquine IC50 to test compound IC50 for antiplasmodial activity against multidrug-resistant Plasmodium falciparum K1 assessed as inhibition of parasite growth incubated for 3 days by HRP2-ELISA. Type of data set: functional. To be noted: time 3 day.
The test system of data set [11] is Plasmodium falciparum. Kind of data set: Potency index, ratio of chloroquine IC50 to test compound IC50 for antiplasmodial activity against chloroquine-resistant Plasmodium falciparum 7G8 assessed as inhibition of parasite growth incubated for 3 days by HRP2-ELISA. Type of data set: functional. To be noted: time 3 day.
In data set [12] the test system is Plasmodium falciparum. The data set can be described thus: Antiplasmodial activity against chloroquine-resistant Plasmodium falciparum 7G8 assessed as inhibition of parasite growth incubated for 3 days by HRP2-ELISA. Type of data set: functional, organism-based. To be noted: 7G8, 72 h.
Data set [13] can be described thus: Resistance index, ratio of IC50 for antiplasmodial activity against chloroquine-resistant Plasmodium falciparum 7G8 to IC50 for antiplasmodial activity against chloroquine-sensitive Plasmodium falciparum 3D7. Type of data set: functional.
A short description of data set [14]: Resistance index, ratio of IC50 for antiplasmodial activity against multidrug-resistant Plasmodium falciparum K1 to IC50 for antiplasmodial activity against chloroquine-sensitive Plasmodium falciparum 3D7. Type of data set: functional.

What is called IC50 is the concentration that gives 50% inhibition. The inhibition is the relative decrease from the control value, in per cent.

Consider `O=C(CNc1ccnc2cc(Cl)ccc12)NCc1nccc2c1[nH]c1ccccc12`, for which the IC50 with Plasmodium falciparum [1] stood at 54 nM; with Plasmodium falciparum [4] it was 171 nM. Also, the IC50 at 1 day in data set [2] stood at 7800 nM. Moreover, in data set [3], the inhibition was below 50%. Also, the selectivity ratio in [5] was determined as 144. The Ratio IC50 in [6] was 3.1.
As for `Cc1nccc2c1[nH]c1ccc(OCc3cn(-c4ccnc5cc(Cl)ccc45)nn3)cc12`, the results for the IC50 in the data set on Plasmodium falciparum [1] and with Plasmodium falciparum [4] were 3660 nM and 7110 nM, respectively. Also, the IC50 at 1 day in [2] was determined as 5500 nM. For the same molecule, in [3], the inhibition is above 75%. In addition, the selectivity ratio in data set [5] is 1.5. The Ratio IC50 in data set [6] was 1.9.
In the case of `COc1ccc2c3ccnc(C)c3n(CCNC(=O)CNc3ccnc4cc(Cl)ccc34)c2c1`, the IC50 was determined as 24.8 nM with Plasmodium falciparum [7], 2 nM in the data set on Plasmodium falciparum [1], 16.2 nM in the data set on Plasmodium falciparum [4] and 7.4 nM with Plasmodium falciparum [12]. Moreover, in [2], the IC50 at 1 day was 8900 nM. Also, the inhibition in [3] stood at 50%. The “Ratio IC50” value in the data set on Plasmodium falciparum [8] was 22.5; with Plasmodium falciparum [9], 5.5; with Plasmodium falciparum [10], 15.9; in the data set on Plasmodium falciparum [11] it was 29.8. In data set [5], the selectivity ratio came to 4450.
Turning to `Cc1nccc2c1[nH]c1cc(OCc3cn(-c4ccnc5cc(Cl)ccc45)nn3)ccc12`, the IC50 with Plasmodium falciparum [7] amounted to 299 nM; with Plasmodium falciparum [1], 95.8 nM; in the data set on Plasmodium falciparum [4] it was 203 nM; with Plasmodium falciparum [12], 195 nM. Also, in [2], the IC50 at 1 day came out at 6400 nM. Moreover, the figures for the Ratio IC50 in data set [13], in [14] and in data set [6] were 2, 3.1 and 2.1, respectively. Moreover, in data set [3], the inhibition was above 75%. Besides, in [5], the selectivity ratio came to 66.8.
For `COc1ccc2c3ccnc(C)c3n(Cc3cn(CCNc4ccnc5cc(Cl)ccc45)nn3)c2c1`, the IC50 is 163 nM in the data set on Plasmodium falciparum [7], 11.6 nM with Plasmodium falciparum [1], 204 nM with Plasmodium falciparum [4] and 28.6 nM in the data set with Plasmodium falciparum [12]. The IC50 at 1 day in data set [2] stood at 14000 nM. For the same molecule, in [3], the inhibition worked out at 50%. Further, in data set [5], the selectivity ratio stood at 829.
As for `COc1ccc2c3ccnc(C)c3n(Cc3cn(-c4ccnc5cc(Cl)ccc45)nn3)c2c1`, the IC50 in the data set on Plasmodium falciparum [1] was found to be 899 nM; with Plasmodium falciparum [4], 1820 nM. Also, the half-maximal inhibitory concentration (IC50) at 1 day in [2] was determined as 19700 nM. For the same molecule, the inhibition in data set [3] was below 50%. In addition, the selectivity ratio in [5] is 21.9. Besides, the Ratio IC50 in data set [6] was found to be 2.
`COc1ccc2c3ccnc(C)c3n(CCC(=O)NCCNc3ccnc4cc(Cl)ccc34)c2c1`: the IC50 at 1 day in [2] turned out to be 12800 nM. The inhibition in [3] was below 50%. The selectivity ratio in [5] turned out to be 795.
Take `CCN(CC)CCCC(C)Nc1ccnc2cc(Cl)ccc12` (configuration not stated): the inhibition in data set [3] was above 75%.
Regarding `COc1ccc2c(c1)[nH]c1c(C)nccc12` [HARMINE], in [2], the IC50 at 1 day is above 250000 nM.
For `Cc1nc(Cn2cc(COc3ccnc4cc(Cl)ccc34)nn2)cc2c1[nH]c1ccccc12`, the figures for the IC50 in the data set on Plasmodium falciparum [1] and with Plasmodium falciparum [4] were 10800 nM and 5420 nM, respectively. The IC50 at 1 day in data set [2] was above 100000 nM. Further, in [3], the inhibition came out at 50%. Moreover, the selectivity ratio in data set [5] is above 9.22. Besides, the Ratio IC50 in data set [6] amounted to 0.4.
Turning to `Clc1ccc2c(OCc3cn(Cc4nccc5c4[nH]c4ccccc45)nn3)ccnc2c1`, the IC50 in the data set on Plasmodium falciparum [1] is above 28000 nM; in the data set with Plasmodium falciparum [4], above 27800 nM. Also, in data set [2], the IC50 at 1 day is above 25000 nM. In data set [3], the inhibition is below 50%. Further, the selectivity ratio in data set [5] was above 0.9.
On to `Cc1nccc2c1[nH]c1cc(OCc3cn(CCNc4ccnc5cc(Cl)ccc45)nn3)ccc12`, for which the IC50 was found to be 33.5 nM in the data set on Plasmodium falciparum [7], 57.3 nM in the data set on Plasmodium falciparum [1], 76.2 nM in the data set on Plasmodium falciparum [4] and 44.2 nM in the data set with Plasmodium falciparum [12]. Moreover, the IC50 at 1 day in data set [2] came out at 6300 nM. The Ratio IC50 in data set [13] amounted to 0.7; in [14], 0.5; in [6] it was 1.3. In addition, the inhibition in data set [3] is above 75%. For the same molecule, in data set [5], the selectivity ratio worked out at 110.
Take `COc1ccc2c3ccnc(C)c3n(CCC(=O)NCCCCNc3ccnc4cc(Cl)ccc34)c2c1`: the IC50 at 1 day in data set [2] was above 25000 nM. Besides, in data set [3], the inhibition was below 50%. Besides, the selectivity ratio in data set [5] was above 723.
Consider `Cc1nc(CNC(=O)CNc2ccnc3cc(Cl)ccc23)cc2c1[nH]c1ccccc12`, for which the IC50 in the data set on Plasmodium falciparum [7] is 48.8 nM; in the data set with Plasmodium falciparum [1] it was 13 nM; in the data set on Plasmodium falciparum [4] it was 46.1 nM; in the data set with Plasmodium falciparum [12], 28.2 nM. The IC50 at 1 day in data set [2] turned out to be 18600 nM. Moreover, the Ratio IC50 in data set [13] was 2.1; in data set [14], 3.7; in data set [6] it was 3.5. In data set [3], the inhibition was below 50%. In addition, the selectivity ratio in data set [5] was found to be 1430.
Consider `Cc1nccc2c1[nH]c1ccc(OCc3cn(CCNc4ccnc5cc(Cl)ccc45)nn3)cc12`, for which the IC50 with Plasmodium falciparum [7] was found to be 141 nM; with Plasmodium falciparum [1], 65.7 nM; with Plasmodium falciparum [4], 160 nM; with Plasmodium falciparum [12] it was 144 nM. Also, in [2], the IC50 at 1 day came out at 15000 nM. Further, the Ratio IC50 was 2.1 in [13], 2.1 in [14] and 2.4 in data set [6]. Besides, the inhibition in data set [3] is above 75%. Moreover, the selectivity ratio in [5] came out at 228.
Turning to `Cc1nccc2c1[nH]c1ccc(OCCNC(=O)CNc3ccnc4cc(Cl)ccc34)cc12`, the IC50 with Plasmodium falciparum [1] is 303 nM; in the data set on Plasmodium falciparum [4], 535 nM. Moreover, the IC50 at 1 day in data set [2] is above 20000 nM. Further, in data set [3], the inhibition was below 50%. In addition, the selectivity ratio in data set [5] was above 66. Further, the Ratio IC50 in [6] turned out to be 1.7.
In the case of `Cc1nccc2c1[nH]c1cc(OCCNC(=O)CNc3ccnc4cc(Cl)ccc34)ccc12`, the IC50 was found to be 234 nM in the data set with Plasmodium falciparum [1] and 309 nM in the data set with Plasmodium falciparum [4]. For the same molecule, the IC50 at 1 day in data set [2] worked out at 15900 nM. Also, in data set [3], the inhibition turned out to be 50%. In addition, the selectivity ratio in data set [5] came out at 68.1. Besides, the Ratio IC50 in data set [6] amounted to 1.3.

The values are drawn from ChEMBL document CHEMBL5113394, “Design and synthesis of harmiquins, harmine and chloroquine hybrids as potent antiplasmodial agents” (Eur J Med Chem, 2022).
